Laboratory results as given in US4638051A, “Brain imaging radiopharmaceuticals” (The Johns Hopkins University, priority 1985, dated 1987).

Assay: Biodistribution studies in ICR white mice: percent of injected dose of Tc-99m complex in brain tissue
Type: in vivo
Settings: for % of Dose of Tc99m Complex in Brain, 5 min / % of Dose of Tc99m Complex in Brain, 10 min / % of Dose of Tc99m Complex in Brain, 15 min: ICR white mice, i.v. (tail), 0.5 to 2 microcuries, saline
Method: Biodistribution studies have been conducted with several complexes according to the present invention, in ICR white mice. A saline solution containing 0.5 to 2 microcuries of the Tc-99m complex was injected intravenously (tail), and the mice were sacrificed after 5, 10 or 15 minutes. The percent of the injected dose which was present in brain tissue was measured. […] On the other hand, the data reveal that the compounds containing the alkyl-amino group according to the present invention are retained in the brain for much longer times. For example, after 15 minutes, the concentration of compound 3 is 15 times that of compound 1.

concentration in brain relative to that of compound 1 (after 15 minutes, mice, i.v., relative to compound 1)	Structure (SMILES)	% of Dose of Tc99m Complex in Brain, 5 min	% of Dose of Tc99m Complex in Brain, 10 min	% of Dose of Tc99m Complex in Brain, 15 min
	CC(C)(S)CNCCNCC(C)(C)S [Compound 1, reference compound]	1.02 % of Dose	0.30 % of Dose	0.03 % of Dose
	CN(C)CCN(CCNCC(C)(C)S)CC(C)(C)S [Compound 2]	0.89 % of Dose	0.30 % of Dose	0.42 % of Dose
15 times	CC(C)NCCN(CCNCC(C)(C)S)CC(C)(C)S [Compound 3]	0.64 % of Dose	0.49 % of Dose	0.49 % of Dose
	CC(C)(S)CNC(C)(C)CN(CCN1CCCCC1)CC(C)(C)S [Compound 9]	2.19 % of Dose		1.01 % of Dose
